Test results from patent publication US20150174209A1, “INSULIN-PRAMLINTIDE COMPOSITIONS AND METHODS FOR MAKING AND USING THEM” (AMYLIN PHARMACEUTICALS. LLC, priority 2012, published 2015).

Tests used:
healthy subjects = test: Glucose and C-peptide minimal models and minimal model of gastrointestinal absorption on aggregated Woerle data; design: species or system human
From the text: The data published in Woerle et al. (December, 2008) Diabetes Care 31(12): 2325-2331, where a dual tracer approach was used in healthy subjects to estimate the rate of appearance of glucose during the meal and hepatic glucose production during placebo/pramlintide were used in an aggregated fashion (individual data not available, FIG. 13A). […] Subsequently, the minimal model of gastrointestinal absorption (FIG. 37) was used to quantify the changes of the rate of appearance of ingested glucose due to pramlintide. […] This finding was incorporated into the Healthy State Simulator and predictions were successfully tested against Woerle et al data FIG. 38. We also successfully tested the prediction of 2 h postprandial glucose of the Type 1 Diabetes Simulator (illustrated in FIG. 18) (incorporating the new kmax) against the data by Kovatchev B P, et al., Pramlintide reduces the risks associated with glucose variability in type 1 diabetes. Diabetes Technol Ther. 2008 October; 10(5):391-6. The new model was finally incorporated into our model predictive control algorithm and in silico experiment on the Type 1 diabetes.

[1] = tested on: patients with type 1 diabetes mellitus; conditions: in vivo, sc; cited from earlier work
type 1 diabetic subjects = test: Identification of the gastro-intestinal tract (oral glucose absorption) model on Ra meal data of the Woerle T1D database; design: species or system human; conditions: 30 μg pramlintide s.c. with meal containing 50 g glucose, 15 type 1 diabetic subjects
Method: The database was made up of 15 type 1 diabetic subjects (8 men and 7 women, 37±2 years of age, body weight 76±3 kg) (this is a database for each individual patient participating in the study published in Woerle et al. (December, 2008) Diabetes Care 31(12): 2325-2331, in which pramlintide was given to TI patients and labeled glucose appearance from meal to blood was measured; Woerle reported the effect of pramlintide on gastric emptying and thus glucose appearance in the blood after a meal in patients with type 1 diabetes). “Ra meal data” means the “glucose rate of appearance (Ra) of ingested glucose”; “Ra meal” refers to measurement in response to a meal (ingested), versus after say an intraduodenal injection of glucose.
Subjects were studied on 2 occasions: hyperglycemia with (PRAM) and without (PBO) 30 μg of pramlintide (Amylin Pharmaceuticals, San Diego, Calif.), injected subcutaneously in the lower abdominal wall with the standardized meal containing 50 g of glucose. Over the initial 90 min of the postprandial period, blood samples were taken at 15 min intervals and thereafter at 30-min intervals until completion of the experiment at 330 min.
The model has been numerically identified on placebo Ra meal data using nonlinear weighted least-squares estimator. Identification on pramlintide Ra meal data have required the use of Bayesian estimator in order to achieve a precise estimates of model parameters.
Identification of the gastro-intestinal tract model on Woerle Ra meal data has provided individual parameters estimates for the 15 T1D subjects in presence or absence of pramlintide. Then individual variation for each parameter has been calculated as: […]
We reduced the standard deviations of the variation of the parameters to the 30% of their values due to the small number of subjects available:
Then 100 virtual parameters variations were generated from the distribution: […]

[2] = cited from earlier work
[3] = pH 2-3; 4C; cited from earlier work
[4] = Chemical stability of pramlintide and human insulin co-formulated in SYMLIN placebo buffer pH 4.0 (RP-HPLC purity; FIGS. 35, 36); conditions: for stability in co-formulation: 25 degrees Centigrade, SYMLIN placebo buffer pH 4.0, 13 week study
Method: Purity was determined via RP-HPLC and is normalized to time=0 purity.

| Compound | effect on insulin sensitivity and beta-cell function (healthy subjects; glucose and C-peptide minimal models) | decrease of parameter kmax (maximum gastric emptying) (healthy subjects; minimal model of gastrointestinal absorption) | effect of mixing with short- or long-acting insulin in the same syringe on pharmacodynamics of glucose and pharmacokinetics of insulin or pramlintide [1] | b (model parameter estimate, mean) (type 1 diabetic subjects) | c (model parameter estimate, mean) (type 1 diabetic subjects) | kabs (model parameter estimate, mean) (type 1 diabetic subjects) | kmin (model parameter estimate, mean) (type 1 diabetic subjects) | kmax (model parameter estimate, mean) (type 1 diabetic subjects; Bayesian estimator) | absorption after subcutaneous injection [2] [min] | duration of action ([2]; subcutaneous injection) [h] | formation of monodesamido-(A21)-insulin [3] | purity loss during storage ([4]; 25 degrees C, insulin in co-formulations) [%] | stability in co-formulation [4] | stability in co-formulation ([4]; listed as insulin) |
| --- | --- | --- | --- | --- | --- | --- | --- | --- | --- | --- | --- | --- | --- | --- |
| CC[C@H](C)[C@H](NC(=O)[C@@H]1CCCN1C(=O)CNC(=O)[C@H](Cc1ccccc1)NC(=O)[C@H](CC(N)=O)NC(=O)[C@H](CC(N)=O)NC(=O)[C@H](CO)NC(=O)[C@H](CO)NC(=O)[C@H](Cc1c[nH]cn1)NC(=O)[C@@H](NC(=O)[C@H](CC(C)C)NC(=O)[C@H](Cc1ccccc1)NC(=O)[C@H](CC(N)=O)NC(=O)[C@H](C)NC(=O)[C@H](CC(C)C)NC(=O)[C@H](CCCNC(=N)N)NC(=O)[C@H](CCC(N)=O)NC(=O)[C@@H](NC(=O)[C@H](C)NC(=O)[C@@H]1CSSC[C@H](NC(=O)[C@@H](N)CCCCN)C(=O)N[C@@H](CC(N)=O)C(=O)N[C@@H]([C@@H](C)O)C(=O)N[C@@H](C)C(=O)N[C@@H]([C@@H](C)O)C(=O)N1)[C@@H](C)O)C(C)C)C(=O)N[C@@H](CC(C)C)C(=O)N1CCC[C@H]1C(=O)N1CCC[C@H]1C(=O)N[C@H](C(=O)N[C@@H](CC(N)=O)C(=O)N[C@H](C(=O)NCC(=O)N[C@@H](CO)C(=O)N[C@@H](CC(N)=O)C(=O)N[C@H](C(=O)N[C@@H](Cc1ccc(O)cc1)C(N)=O)[C@@H](C)O)C(C)C)[C@@H](C)O [pramlintide] | no effect | ⅔ | did not affect | 0.985 | 0.537 | 0.020 | 0.005 | 0.041 |  |  |  |  |  |  |
| human insulin: regular human hormone with 21 amino acid A chain (SEQ ID NO:2) and 30 amino acid B chain (SEQ ID NO:3) |  |  |  |  |  |  |  |  | 15 to 60 | 5 to 9 | 1-2 % per month | 40 | rapidly degrades | unacceptable degradation |
